The target of data set [1] is T1, BaF3 cells transformed with the oncogenic fusion protein NPM/ALK (Homo sapiens, UniProt Q9UM73).
T1 construct: fused on or other part: P06748 (Nucleophosmin)
Briefly: Tritiated thymidine uptake cell proliferation assay, BaF3 NPM/ALK. The note with it: 3[H]-thymidine uptake, 72 h; read-out: BaF NPM/ALK IC50. Type of data set: cell-based. The gist of the method: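 Cells were seeded at 10 000/well with serial inhibitor dilutions or DMSO vehicle and incubated 72 h at 37 °C, with ^3[H]-thymidine (1 μCi/well) added for the final 16 h. Incorporation was read by β scintillation counting. IC50 (μM) is the concentration giving a 50% decrease in uptake versus controls.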

The subject of data set [2] is parent untransformed BaF3 cells. Briefly: Tritiated thymidine uptake cell proliferation assay, parental BaF3 (control). Type of data set: cell-based. The conditions noted are these: Mus musculus, 3[H]-thymidine uptake, 72 h, medium with IL-3, read-out: BaF parental IC50. The gist of the method:
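Control lines were parental BaF3 in IL-3-supplemented medium and ALK-, Abl- or RET-negative U937, seeded at 10 000 cells/well with serial inhibitor dilutions for 72 h at 37 °C. ³H-thymidine (1 μCi/well) was added for the final 16 h; IC50 (μM) is the concentration halving uptake versus DMSO.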

Data set [3] deals with T2, Recombinant Abl T315I protein (Homo sapiens, UniProt P00519, T315I).
T2 construct: made in house; host or cells: Sf9 cells (baculovirus)
Briefly: Abl T315I mutant kinase inhibitory activity, ELISA-based in vitro kinase assay. Type of data set: biochemical. The note with it: purified Abl T315I, 0.3 mM ATP. How it is done: (§1) Recombinant ALK kinase was expressed in Sf9 insect cells using the pBlueBacHis2C baculovirus vector system and purified using an anion exchange Fast Flow Q-sepharose column (Amersham-Pharmacia Biotech) followed by HiTrap™-nickel affinity column (Amersham-Pharmacia Biotech). Purified ALK protein was used to screen inhibitors in the ELISA-based kinase assay. A Nunc Immuno 96 well plate was incubated overnight at 37° C. with coating solution (125 μL/well) containing ALK peptide substrate ([…]) (SEQ ID NO: 1) at various concentrations in PBS. Wells were then washed with 200 μL of wash buffer (PBS-Tween 0.05%) and left to dry for at least 2 h at 37° C. The kinase reaction was performed in the presence of 50 mM Tris pH 7.5, 5 mM MnCl2, 5 mM MgCl2, 0.3 mM ATP and purified rALK in a total volume of 100 μL/well at 30° C. for 15 min. For inhibitor testing the reaction mix was preincubated with the inhibitor or solvent control for 10 min at room temperature before transferring to the ELISA plate. After the reaction wells were washed 5 times with 200 μL of wash buffer. Phosphorylated peptide was detected using 100 μL/well of a mouse monoclonal anti-phosphotyrosine antibody (clone 4G10 Upstate Biotech Ltd) diluted 1:2000 in PBS+4% BSA. After 30 min incubation at room temperature the antibody was removed and wells were washed as described above. 100 μL of a secondary antibody (anti-mouse IgG, Horseradish Peroxidase linked whole antibody, Amersham Pharmacia Biotech) diluted 1:1000 in PBS+4% BSA was added to each well and the plate was incubated again for 30 min at room temperature before washing as above. The plate was developed using 100 μL/well TMB Substrate Solution (Endogen) and the reaction was stopped by adding an equiv.ual volume of H2SO4 0.36 M. Finally, the absorbance was read at 450 nm using an Ultrospec® 300 spectrophotometer (Amersham-Pharmacia Biotech). The concentration of the test solution showing 50% inhibition as compared with the control was expressed as IC50 (μM).
37. Abl T315I Mutant Kinase Inhibitory Activity
(§2) Method: ELISA-Based In Vitro Kinase Assay
(§3) Recombinant Abl T315I protein was expressed in Sf9 cells using the pBlueBacHis2C baculovirus expression vector. Abl T315I was purified using an anion exchange Fast Flow Q-sepharose column (Amersham-Pharmacia Biotech) followed by HiTrap™-nickel affinity column (Amersham-Pharmacia Biotech). Purified Abl T315I was used in the ELISA-based kinase assay to screen inhibitors as described above. The kinase reaction was performed in the presence of 50 mM Tris pH 7.5, 1 mM MnCl2, 5 mM MgCl2, 0.3 mM ATP, peptide substrate ([…]) (SEQ ID NO: 1) and purified Abl T315I. The concentration of the test solution showing 50% inhibition as compared with the control was expressed as IC50 (μM).
For orientation: An ELISA detects its analyte on a solid surface through an enzyme-linked reagent.

The next data set has as its target T3, Recombinant Ret protein (Homo sapiens, UniProt P07949).
T3 construct: made in house; host or cells: Sf9 cells (baculovirus)
The data set is described as follows: RET kinase inhibitory activity, ELISA-based in vitro kinase assay. In kind it is biochemical. The conditions noted are these: purified Ret, 0.3 mM ATP. How it is done: as §1
38. RET Kinase Inhibitory Activity
as §2
as §3, with “Ret” for “Abl T315I”, “Ret.” for “Abl T315I.”

Data set [4] deals with NPM/ALK positive SUDHL-1 cells. The data set is described as follows: Tritiated thymidine uptake cell proliferation assay, SUDHL-1. In kind it is cell-based. The conditions noted are these: 3[H]-thymidine uptake, 72 h. How it is done: Inhibition of the proliferation of NPM/ALK positive cells
(§4) Method: Tritiated Thymidine Uptake Cell Proliferation Assay
(§5) The following procedure was used with parent untransformed BaF3 cells, BaF3 cells transformed with the oncogenic fusion protein NPM/ALK, NPM/ALK positive SUDHL-1 cells, ALK-negative U937 cells, NPM/ALK positive KARPAS-299 cells. The parent untransformed BaF3 cells and Alk-negative U937 cells are used as controls. Cells were seeded in U-bottomed 96-well plates at 10 000 cells/well in a volume of 100 μL in supplemented medium. In the case of the parent untransformed BaF3 cells, the medium was supplemented with IL-3. Serial dilutions of inhibitors were added to the appropriate wells and volumes adjusted to 200 μL. Controls were treated with the equivalent volume of vehicle, DMSO, alone. Plates were incubated at 37° C. for 72 h. ^3[H]-thymidine (1 μCi/well) was added for the last 16 h of incubation. Cells were harvested on to paper filters and ^3[H]-thymidine incorporation was measured using a β scintillation counter (1430 MicroBeta, Wallac, Turku, Finland). The 50% inhibitory concentration (IC50) was defined as the concentration of inhibitor, expressed in micromolar, that gave a 50% decrease in ^3[H]-thymidine uptake compared with controls.

For the next data set, the target named is T4, Recombinant ALK kinase (Homo sapiens, UniProt Q9UM73).
T4 construct: made in house; host or cells: Sf9 insect cells (baculovirus)
T4 sequence (Q9UM73 19-1620): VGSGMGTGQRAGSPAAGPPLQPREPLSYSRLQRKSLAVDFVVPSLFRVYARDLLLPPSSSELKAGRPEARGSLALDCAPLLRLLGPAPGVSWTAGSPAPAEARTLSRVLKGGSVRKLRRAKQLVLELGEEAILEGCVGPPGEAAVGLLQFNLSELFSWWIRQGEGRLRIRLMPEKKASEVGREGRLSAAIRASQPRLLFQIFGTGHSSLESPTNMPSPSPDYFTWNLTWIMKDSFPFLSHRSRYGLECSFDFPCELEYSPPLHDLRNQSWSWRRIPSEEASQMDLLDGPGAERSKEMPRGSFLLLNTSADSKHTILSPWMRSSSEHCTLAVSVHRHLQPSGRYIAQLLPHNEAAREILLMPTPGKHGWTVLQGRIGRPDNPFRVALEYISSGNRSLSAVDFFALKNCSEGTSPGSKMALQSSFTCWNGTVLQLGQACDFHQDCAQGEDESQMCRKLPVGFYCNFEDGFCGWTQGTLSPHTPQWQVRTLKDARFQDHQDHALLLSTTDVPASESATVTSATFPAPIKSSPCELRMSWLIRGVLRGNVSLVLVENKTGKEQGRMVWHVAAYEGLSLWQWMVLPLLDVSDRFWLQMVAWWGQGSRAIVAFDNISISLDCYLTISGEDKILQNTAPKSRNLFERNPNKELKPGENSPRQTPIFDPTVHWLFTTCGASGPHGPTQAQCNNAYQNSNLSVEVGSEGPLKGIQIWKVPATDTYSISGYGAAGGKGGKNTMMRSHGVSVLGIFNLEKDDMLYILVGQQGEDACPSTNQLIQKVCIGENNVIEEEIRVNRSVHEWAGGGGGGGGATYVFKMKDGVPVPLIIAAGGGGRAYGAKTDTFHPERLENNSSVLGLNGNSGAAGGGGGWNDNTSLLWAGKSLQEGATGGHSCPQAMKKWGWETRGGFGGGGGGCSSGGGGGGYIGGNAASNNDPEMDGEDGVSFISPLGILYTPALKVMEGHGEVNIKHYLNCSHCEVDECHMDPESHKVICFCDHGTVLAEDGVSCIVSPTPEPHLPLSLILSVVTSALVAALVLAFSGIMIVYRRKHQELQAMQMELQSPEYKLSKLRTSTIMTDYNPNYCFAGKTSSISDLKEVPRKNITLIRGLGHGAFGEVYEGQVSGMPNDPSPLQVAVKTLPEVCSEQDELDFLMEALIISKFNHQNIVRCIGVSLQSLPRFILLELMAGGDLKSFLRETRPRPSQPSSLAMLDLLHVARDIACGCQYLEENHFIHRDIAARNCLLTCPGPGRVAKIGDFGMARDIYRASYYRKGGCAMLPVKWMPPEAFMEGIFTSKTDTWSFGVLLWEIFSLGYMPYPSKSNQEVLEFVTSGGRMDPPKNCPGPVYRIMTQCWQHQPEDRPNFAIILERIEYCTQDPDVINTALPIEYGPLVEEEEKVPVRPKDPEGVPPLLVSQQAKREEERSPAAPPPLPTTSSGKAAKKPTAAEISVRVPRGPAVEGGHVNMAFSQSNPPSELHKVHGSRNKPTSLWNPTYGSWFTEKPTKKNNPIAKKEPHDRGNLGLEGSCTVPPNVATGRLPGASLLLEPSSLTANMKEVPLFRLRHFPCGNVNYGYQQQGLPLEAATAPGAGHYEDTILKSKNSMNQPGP
The data set is described as follows: ALK kinase inhibitory activity, ELISA-based in vitro kinase assay. Type of data set: biochemical. The note with it: purified rALK, 0.3 mM ATP, read-out: ALK IC50. The gist of the method: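 Sf9-expressed, purified recombinant ALK phosphorylated a plate-coated peptide substrate with 0.3 mM ATP, Mn2+/Mg2+, pH 7.5, 15 min at 30° C, after 10 min inhibitor preincubation. Phosphotyrosine was detected by anti-pTyr ELISA (TMB, A450); IC50 in μM is the concentration giving 50% inhibition relative to control.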

For a further data set, the system named is ALK-negative U937 cells. Briefly: Tritiated thymidine uptake cell proliferation assay, U937 (control). In kind it is cell-based. The conditions noted are these: Homo sapiens, U-937; 3[H]-thymidine uptake, 72 h. How it is done: as §4
as §5, with “with controls. […]” for “with controls.”
as §5, with “RET-PTC2, or RET-negative 11937” for “NPM/ALK, NPM/ALK positive SUDHL-1 cells, ALK-negative U937 cells, NPM/ALK positive KARPAS-299”, “RET-negative” for “Alk-negative”

T3 sequence (P07949 29-1114): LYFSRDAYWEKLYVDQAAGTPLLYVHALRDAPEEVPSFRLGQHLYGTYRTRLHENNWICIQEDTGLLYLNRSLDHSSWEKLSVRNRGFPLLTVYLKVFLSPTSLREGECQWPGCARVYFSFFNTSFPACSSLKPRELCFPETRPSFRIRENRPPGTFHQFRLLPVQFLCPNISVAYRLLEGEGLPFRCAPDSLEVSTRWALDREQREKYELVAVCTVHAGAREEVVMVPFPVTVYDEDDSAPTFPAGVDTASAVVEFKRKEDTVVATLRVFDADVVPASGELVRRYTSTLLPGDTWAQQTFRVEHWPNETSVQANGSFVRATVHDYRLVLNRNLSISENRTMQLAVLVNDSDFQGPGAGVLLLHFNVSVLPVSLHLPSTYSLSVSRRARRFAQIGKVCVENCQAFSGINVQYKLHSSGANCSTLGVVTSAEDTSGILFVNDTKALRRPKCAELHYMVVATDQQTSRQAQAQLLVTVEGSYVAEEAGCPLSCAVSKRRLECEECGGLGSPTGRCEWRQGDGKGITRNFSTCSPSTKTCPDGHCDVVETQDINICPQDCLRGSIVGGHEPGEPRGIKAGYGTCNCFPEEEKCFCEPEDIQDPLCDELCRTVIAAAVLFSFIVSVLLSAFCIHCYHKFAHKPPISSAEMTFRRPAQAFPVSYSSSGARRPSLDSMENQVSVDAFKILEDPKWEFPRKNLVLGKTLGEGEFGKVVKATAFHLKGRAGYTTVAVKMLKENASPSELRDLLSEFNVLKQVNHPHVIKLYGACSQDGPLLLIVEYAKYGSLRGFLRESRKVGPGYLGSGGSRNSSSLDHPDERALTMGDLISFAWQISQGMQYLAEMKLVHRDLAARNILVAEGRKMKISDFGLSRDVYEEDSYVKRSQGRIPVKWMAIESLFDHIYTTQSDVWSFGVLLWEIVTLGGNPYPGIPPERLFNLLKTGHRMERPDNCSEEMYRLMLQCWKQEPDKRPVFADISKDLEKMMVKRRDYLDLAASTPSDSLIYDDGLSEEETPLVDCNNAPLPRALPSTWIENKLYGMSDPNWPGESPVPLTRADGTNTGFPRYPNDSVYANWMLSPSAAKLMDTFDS
T1 sequence (Q9UM73 whole entry, change not shown, the tested form may be a part): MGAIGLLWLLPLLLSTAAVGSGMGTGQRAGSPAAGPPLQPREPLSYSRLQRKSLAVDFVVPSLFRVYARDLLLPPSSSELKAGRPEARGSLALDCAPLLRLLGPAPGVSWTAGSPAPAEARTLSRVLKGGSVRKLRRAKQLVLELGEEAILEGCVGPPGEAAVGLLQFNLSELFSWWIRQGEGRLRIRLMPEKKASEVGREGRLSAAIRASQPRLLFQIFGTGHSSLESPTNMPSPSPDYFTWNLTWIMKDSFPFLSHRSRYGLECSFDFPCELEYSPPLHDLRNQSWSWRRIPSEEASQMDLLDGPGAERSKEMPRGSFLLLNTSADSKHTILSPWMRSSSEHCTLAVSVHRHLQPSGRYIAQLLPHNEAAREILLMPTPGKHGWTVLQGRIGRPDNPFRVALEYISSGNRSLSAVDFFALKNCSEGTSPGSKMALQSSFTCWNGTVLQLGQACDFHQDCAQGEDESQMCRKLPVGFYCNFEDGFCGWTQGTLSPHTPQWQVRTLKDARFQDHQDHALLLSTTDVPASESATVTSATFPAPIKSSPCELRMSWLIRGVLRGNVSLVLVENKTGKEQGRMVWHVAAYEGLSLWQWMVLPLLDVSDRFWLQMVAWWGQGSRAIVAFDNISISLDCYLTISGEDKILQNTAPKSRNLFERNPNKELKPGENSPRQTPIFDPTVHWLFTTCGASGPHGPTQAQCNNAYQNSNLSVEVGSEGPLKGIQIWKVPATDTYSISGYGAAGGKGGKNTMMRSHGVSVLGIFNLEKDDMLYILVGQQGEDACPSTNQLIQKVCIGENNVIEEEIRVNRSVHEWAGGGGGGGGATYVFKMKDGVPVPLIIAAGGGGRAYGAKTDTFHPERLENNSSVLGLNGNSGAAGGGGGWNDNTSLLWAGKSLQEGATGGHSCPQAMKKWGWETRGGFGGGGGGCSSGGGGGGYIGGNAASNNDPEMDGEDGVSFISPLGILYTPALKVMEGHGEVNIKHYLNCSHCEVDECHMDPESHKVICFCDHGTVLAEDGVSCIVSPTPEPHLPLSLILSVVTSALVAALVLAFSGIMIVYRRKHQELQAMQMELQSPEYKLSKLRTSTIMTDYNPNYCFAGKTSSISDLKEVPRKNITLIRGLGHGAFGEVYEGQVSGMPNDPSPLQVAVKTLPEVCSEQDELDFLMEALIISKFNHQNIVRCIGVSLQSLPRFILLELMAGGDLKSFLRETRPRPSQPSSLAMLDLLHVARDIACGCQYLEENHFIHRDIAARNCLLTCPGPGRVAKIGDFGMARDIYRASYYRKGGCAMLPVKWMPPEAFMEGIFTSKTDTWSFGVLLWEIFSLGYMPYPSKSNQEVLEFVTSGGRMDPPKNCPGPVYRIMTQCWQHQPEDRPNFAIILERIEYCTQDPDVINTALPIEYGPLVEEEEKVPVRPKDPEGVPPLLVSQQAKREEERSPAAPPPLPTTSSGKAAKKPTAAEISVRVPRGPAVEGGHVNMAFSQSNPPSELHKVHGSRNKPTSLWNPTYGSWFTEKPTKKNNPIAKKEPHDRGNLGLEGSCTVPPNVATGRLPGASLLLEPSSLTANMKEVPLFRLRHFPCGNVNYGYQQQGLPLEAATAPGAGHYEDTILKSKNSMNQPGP

`O=C(CSc1nc2ccccc2s1)c1ccc2[nH]c3ncc(Cl)cc3c2c1` [R273, 2-(Benzothiazol-2-ylsulfanyl)-1-(3-chloro-9H-pyrido[2,3-b]indol-6-yl)ethanone]: the GI50 in data set [1] was 19 µM. For the same molecule, the half-inhibitory concentration (IC50) in data set [2] is 14 µM; in data set [3], 4.4 µM; at Recombinant Ret protein, 2 µM; in data set [4], above 25 µM.

For `O=C(CSc1nc2ccccc2[nH]1)c1ccc2[nH]c3ncc(Cl)cc3c2c1` [R274, 2-(1H-Benzoimidazol-2-ylsulfanyl)-1-(3-chloro-9H-pyrido[2,3-b]indol-6-yl)ethanone], the GI50 in data set [1] came to 1 µM. Further, the IC50 in data set [2] was determined as 0.9 µM; in data set [3], 19 µM; on Recombinant Ret protein, 14 µM; in data set [4] it was 0.6 µM.

Regarding `O=C(CSc1ccccc1)c1ccc2[nH]c3ncc(Cl)cc3c2c1` [R275, 1-(3-Chloro-9H-pyrido[2,3-b]indol-6-yl)-2-phenylsulfanylethanone], in data set [1], the GI50 turned out to be 8 µM. Further, the IC50 is 2 µM in data set [2]; above 100 µM in data set [3]; 20 ± 0.6 µM on Recombinant ALK kinase; 27 µM on Recombinant Ret protein; above 25 µM in data set [4].

As for `COc1ccc(-c2cnc3[nH]c4ccccc4c3c2)cc1` [R278, 3-(4-methoxyphenyl)-9H-pyrido[2,3-b]indole], the melting point is above 220 °C. Also, in data set [1], the GI50 was above 50 µM. The IC50 in data set [2] is above 50 µM. The IC50 in data set [3] was 23 µM. Moreover, the half-maximal inhibitory concentration (IC50) at Recombinant ALK kinase was 1.2 ± 0.2 µM. Also, at Recombinant Ret protein, the 50% inhibitory concentration (IC50) is 1 µM.

In the case of `C(=C\c1cnc2[nH]c3ccccc3c2c1)/c1ccccc1` [R281, 3-(2′-phenylethenyl)-9H-pyrido[2,3-b]indole], the GI50 in data set [1] was above 100 µM. Further, the IC50 in data set [2] was above 100 µM; in data set [3], 1.8 µM; at Recombinant ALK kinase, 0.5 ± 0.3 µM; on Recombinant Ret protein, 1.1 µM; in data set [4], above 100 µM.

Consider `O=C(CSC1=NCCS1)c1ccc2[nH]c3ncc(Cl)cc3c2c1` [R282, 1-(3-chloro-9H-pyrido[2,3-b]indol-6-yl)-2-(4,5-dihydrothiazol-2-ylsulfanyl)éthanone], for which the GI50 in data set [1] came out at 14 µM. For the same molecule, the 50% inhibitory concentration (IC50) worked out at 32 µM in data set [2], 36 µM in data set [3], 9.5 µM at Recombinant Ret protein and 0.7 µM in data set [4].

Turning to `CCN(CC)CCSCC(=O)c1ccc2[nH]c3ncc(Cl)cc3c2c1` [R283, 1-(3-Chloro-9H-pyrido[2,3-b]indol-6-yl)-2-(N,N-diethylaminoethylsulfanyl)ethanone], the GI50 in data set [1] was 0.5 ± 0.2 µM. The half-inhibitory concentration (IC50) came out at 3.6 ± 1.8 µM in data set [2], 48 µM in data set [3], 5.7 µM at Recombinant Ret protein and 0.2 ± 0.02 µM in data set [4].

As to `COc1ccc(-c2ccc3c(n2)[nH]c2ccccc23)cc1` [R299, 2-(4-methoxyphenyl)-9H-pyrido[2,3-b]indole], the GI50 in data set [1] was above 100 µM. Also, the IC50 in data set [2] is above 100 µM; in data set [3], above 100 µM; at Recombinant ALK kinase, 2.1 ± 0.5 µM; at Recombinant Ret protein, 4.1 µM; in data set [4], 59 µM.

Take `C(=C\c1ccc2c(n1)[nH]c1ccccc12)/c1ccccc1` [R300, 2-(2′-phenylethenyl)-9H-pyrido[2,3-b]indole]: the GI50 in data set [1] came to 80 µM. Moreover, the IC50 in data set [2] was above 100 µM; in data set [3], above 100 µM; at Recombinant Ret protein it was 4.8 µM; in data set [4], above 100 µM.

Regarding `CCN(CC)CCCOc1ccc(-c2ccc3[nH]c4ncc(/C=C/c5ccccc5)cc4c3c2)cc1` [R338, N,N-diethyl-3-(4-(3-(2′-phenylethenyl)-9H-pyrido[2,3-b]indol-6-yl)phenoxy)propan-1-amine], the GI50 in data set [1] stood at 0.5 µM. Moreover, the half-maximal inhibitory concentration (IC50) (in data set [2]; with ALK-negative U937 cells; in data set [4]) was 0.4 µM throughout.

The IC50 is the concentration needed to halve the response being measured. As usually defined, the melting point is the temperature of the solid-liquid transition.

Source of the values: patent US8895744B2, “Alfa-carboline inhibitors of NPM-ALK, RET, and Bcr-Abl” (Universita' Degli Studi di Milano-Bicocca, priority 2008, dated 2014).
